The values that follow come from patent publication US6548486B1, “Fatty acid esters of nucleoside analogs” (Norsk Hydro a.s., priority 1991, dated 2003).

The subject of one assay is Herpes virus 2. Kind of assay: In vivo reduced mortality, Herpes Simplex Virus 2 infected mice. Further details: species or system female NMRI mice. The text has this:
The in vivo experiments were done using 3-4 weeks old female NMRI mice. This strain of mice is sensitive to the human herpes virus, up to an age of about 6 weeks, where after they become relatively resistant. Mice below this critical age were used, having a weight of 13-17 grams.
Herpes virus 2 which were third passage isolates were inocculated on the left ear lobe by a standarized procedure. […] Thus HSV 2 is especially suitable as a system for evaluation of the therapeutic efficiency by counting the number of cases of encephalitis.
The animals received approximately 12 mg/kg body weight/day through the drinking water. The compounds were added to the drinking water formulated as micelles with deoxycholate.
Both the control group and the groups receiving the test compounds included 10 animals in each group. The test compounds were ACV-elaidate and ACV in comparison with the control. Treatment was started on day 3 from inocculation. At that time the infection is well established in the central nerve system.

The test system of assay [1] is HSV 2 strain relatively resistent to ACV. The experiment in a line: Plaque method with a HSV 2 strain relatively resistent to ACV. To be noted: 0.9 μmol/l versus 2.2 μmol/l, FIG. 1B. It is filed as cell-based. The method, then: A virus preparation of HSV 2 (3rd passage of a clinical isolate) is diluted to 3×10^3 pfu/well, and thereafter inocculated on cells and incubated for 1 hour in a tissue culture of vero cells. At that time the virus is incorporated into the cells.
These cells are then cultivated for 24 hours with an anti-viral agent. Thereafter they are placed under freezing conditions, which lead to the disruption of the cells and free virus appear under the melting process. Dilutions of either 1/100 or 1/10000 are prepared and added to fresh tissue cultures. Incubation for 1 hour leads to incorporation of virus in the cells. Carboxymethylcellulose (CMC) is added in order to prohibit the migration of virus between the cells through the medium. Spread of virus by cell contact is still effective in causing the formation of plaques.
One plaque will represent one infectious virus. Thus the counting of plaques gives a precise quantitation of the number of infectious virus.
In a test done with a HSV 2 strain relatively resistent to ACV, the test compounds, ACV, ACV-oleate and ACV-elaidate, were added at 0.9 μmol/l or 2.2 μmol/l.

Assay [2] concerns HSV 2 (3rd passage of a clinical isolate). Kind of assay: Plaque method: tissue culture of HSV 2 in vero cells. The following applies: Ara T esters at 3.9 μmol/l, FIG. 2. It is filed as cell-based.

Compound `CCCCCCCC/C=C/CCCCCCCC(=O)OCCOCn1cnc2c(=O)[nH]c(N)nc21` [ACV-elaidate, 9-(2′-(trans-9″-Octadecenoyloxy)ethoxymethyl)-Guanine] registered a survival rate in the assay on Herpes virus 2 (approximately 12 mg/kg body weight/day through the drinking water, treatment started day 3 from inocculation, FIG. 3) of 40%. Also, in the assay on Herpes virus 2 (surviving animals after 21 days), the signs of encephalitis entry is given as “no signs of encephalitis”. In assay [1], the “inhibitory effect at increasing concentration” value is given as “strongly enhanced at the higher concentration”. In the case of `CCCCCCCC/C=C\CCCCCCCC(=O)OCCOCn1cnc2c(=O)[nH]c(N)nc21` [ACV-oleate, 9-(2′-(cis-9′-Octadecenoylcxy)ethoxymethyl)-Guanine], the “inhibitory effect at increasing concentration” value in assay [1] was “strongly enhanced at the higher concentration”. On the same count and under the same terms, under `Nc1nc2c(ncn2COCCO)c(=O)[nH]1` [ACV, 9-(2-Hydroxyethoxymethyl)-Guanine, reference compound] stands “remains at the same level”. In assay [2], `CCCCCCCC/C=C\CCCCCCCC(=O)OC[C@H]1O[C@@H](n2cc(C)c(=O)[nH]c2=O)[C@@H](O)[C@@H]1O` (relative stereo) [Ara T oleate, 5′-O-(cis-9″-Octadecenoyl)-1-β-D-Arabinofuranosyl-Thymine] returned an inhibition of 100%.
